ChEMBL document CHEMBL4613212, “Insights of synthetic analogues of anti-leprosy agents” (Bioorg Med Chem, 2019)
Converted amounts (≈) assume the structure as drawn.

Assays:
Format in all cases: functional
Mycobacterium leprae [1] = assay: Anti-leprotic activity against Mycobacterium leprae infected in BALB/c mouse assessed as time delay in bacterial multiplication in footpad at 0.012 g/100g of diet administered via feed starting 60 or 75 day post infection up to 90 days by Shepard's kinetic method
Mycobacterium leprae [2] = assay: Anti-leprotic activity against Mycobacterium leprae primary cultures at 4 weeks assessed as ATP level per 10^7 cells at 20.0 mg/L measured by bioluminescence assay (reference value: 314 +/- 46 pg)
Mycobacterium leprae [3] = assay: Anti-leprotic activity against Mycobacterium leprae primary cultures at 4 weeks assessed as [3H]thymidine uptake per 5 times 10^7 cells at 5.0 mg/L (reference value: 0.95 +/- 0.01 pmol)
Mycobacterium leprae [4] = assay: Anti-leprotic activity against Mycobacterium leprae subcultures at 4 weeks assessed as [3H]thymidine uptake per 5 times 10^7 cells at 15.0 mg/L (reference value: 1.28 +/- 0.14 pmol)
Mycobacterium leprae [5] = assay: Anti-leprotic activity against Mycobacterium leprae primary cultures at 4 weeks assessed as [3H]thymidine uptake per 5 times 10^7 cells at 20.0 mg/L (reference value: 0.95 +/- 0.01 pmol)
Mycobacterium leprae [6] = assay: Anti-leprotic activity against Mycobacterium leprae subcultures at 4 weeks assessed as ATP level per 10^7 cells at 15.0 mg/L measured by bioluminescence assay (reference value: 462 +/- 64 pg)
Mycobacterium leprae [7] = assay: Anti-leprotic activity against Mycobacterium leprae subcultures at 4 weeks assessed as ATP level per 10^7 cells at 10.0 mg/L measured by bioluminescence assay (reference value: 462 +/- 64 pg)
Mycobacterium leprae [8] = assay: Anti-leprotic activity against Mycobacterium leprae subcultures at 4 weeks assessed as ATP level per 10^7 cells at 0.5 mg/L measured by bioluminescence assay (reference value: 462 +/- 64 pg)
Mycobacterium leprae [9] = assay: Anti-leprotic activity against Mycobacterium leprae primary cultures at 4 weeks assessed as ATP level per 10^7 cells at 5.0 mg/L measured by bioluminescence assay (reference value: 314 +/- 46 pg)
Mycobacterium leprae [10] = assay: Anti-leprotic activity against Mycobacterium leprae subcultures at 4 weeks assessed as ATP level per 10^7 cells at 1.0 mg/L measured by bioluminescence assay (reference value: 462 +/- 64 pg)
Mycobacterium leprae [11] = assay: Anti-leprotic activity against Mycobacterium leprae subcultures at 4 weeks assessed as [3H]thymidine uptake per 5 times 10^7 cells at 10.0 mg/L (reference value: 1.28 +/- 0.14 pmol)
Mycobacterium leprae [12] = assay: Anti-leprotic activity against Mycobacterium leprae primary cultures at 4 weeks assessed as [3H]thymidine uptake per 5 times 10^7 cells at 1.0 mg/L (reference value: 0.95 +/- 0.01 pmol)
Mycobacterium leprae [13] = assay: Anti-leprotic activity against Mycobacterium leprae primary cultures at 4 weeks assessed as [3H]thymidine uptake per 5 times 10^7 cells at 0.5 mg/L (reference value: 0.95 +/- 0.01 pmol)
Mycobacterium leprae [14] = assay: Anti-leprotic activity against Mycobacterium leprae primary cultures at 4 weeks assessed as [3H]thymidine uptake per 5 times 10^7 cells at 10.0 mg/L (reference value: 0.95 +/- 0.01 pmol)
Mycobacterium leprae [15] = assay: Antimicrobial activity against Mycobacterium leprae
Mycobacterium leprae [16] = assay: Anti-leprotic activity against Mycobacterium leprae primary cultures at 4 weeks assessed as ATP level per 10^7 cells at 0.5 mg/L measured by bioluminescence assay (reference value: 314 +/- 46 pg)
Mycobacterium leprae [17] = assay: Anti-leprotic activity against Mycobacterium leprae primary cultures at 4 weeks assessed as ATP level per 10^7 cells at 1.0 mg/L measured by bioluminescence assay (reference value: 314 +/- 46 pg)
Mycobacterium leprae [18] = assay: Anti-leprotic activity against Mycobacterium leprae subcultures at 4 weeks assessed as [3H]thymidine uptake per 5 times 10^7 cells at 5.0 mg/L (reference value: 1.28 +/- 0.14 pmol)
Mycobacterium leprae [19] = assay: Anti-leprotic activity against Mycobacterium leprae subcultures at 4 weeks assessed as ATP level per 10^7 cells at 5.0 mg/L measured by bioluminescence assay (reference value: 462 +/- 64 pg)
Mycobacterium leprae [20] = assay: Anti-leprotic activity against Mycobacterium leprae primary cultures at 4 weeks assessed as [3H]thymidine uptake per 5 times 10^7 cells at 15.0 mg/L (reference value: 0.95 +/- 0.01 pmol)
Mycobacterium leprae [21] = assay: Anti-leprotic activity against Mycobacterium leprae primary cultures at 4 weeks assessed as ATP level per 10^7 cells at 15.0 mg/L measured by bioluminescence assay (reference value: 314 +/- 46 pg)
Mycobacterium leprae [22] = assay: Anti-leprotic activity against Mycobacterium leprae subcultures at 4 weeks assessed as [3H]thymidine uptake per 5 times 10^7 cells at 0.5 mg/L (reference value: 1.28 +/- 0.14 pmol)
Mycobacterium leprae [23] = assay: Anti-leprotic activity against Mycobacterium leprae subcultures at 4 weeks assessed as ATP level per 10^7 cells at 20.0 mg/L measured by bioluminescence assay (reference value: 462 +/- 64 pg)
Mycobacterium leprae [24] = assay: Anti-leprotic activity against Mycobacterium leprae subcultures at 4 weeks assessed as [3H]thymidine uptake per 5 times 10^7 cells at 1.0 mg/L (reference value: 1.28 +/- 0.14 pmol)
Mycobacterium leprae [25] = assay: Anti-leprotic activity against Mycobacterium leprae primary cultures at 4 weeks assessed as ATP level per 10^7 cells at 10.0 mg/L measured by bioluminescence assay (reference value: 314 +/- 46 pg)
Mycobacterium leprae [26] = assay: Anti-leprotic activity against Mycobacterium leprae subcultures at 4 weeks assessed as [3H]thymidine uptake per 5 times 10^7 cells at 20.0 mg/L (reference value: 1.28 +/- 0.14 pmol)

`CC(=O)Nc1ccc(S(=O)(=O)c2ccc(NC(C)=O)cc2Cl)cc1` was tested, and the Time (Mycobacterium leprae [1]) was 85 days.

With `CCOc1cc(Cc2cnc(N)nc2N)cc(OCC)c1-n1cccc1` [EPIROPRIM] the Activity (Mycobacterium leprae [2]) was 0 pg, the Activity (Mycobacterium leprae [3]) was 0.73 pmol and the Activity (Mycobacterium leprae [4]) was 0 pmol. For the same compound, the Activity (Mycobacterium leprae [5]) was 0 pmol, the Activity (Mycobacterium leprae [6]) was 0 pg and the Activity (Mycobacterium leprae [7]) was 0 pg. The Activity (Mycobacterium leprae [8]) was 0.82 pg, the Activity (Mycobacterium leprae [9]) was 283 pg and the Activity (Mycobacterium leprae [10]) was 0.95 pg. The Activity (Mycobacterium leprae [11]) was 0 pmol, the Activity (Mycobacterium leprae [12]) was 1.44 pmol and the Activity (Mycobacterium leprae [13]) was 1.12 pmol. The Activity (Mycobacterium leprae [14]) was 0 pmol, the MIC (Mycobacterium leprae [15]) was 10 µg/mL (≈ 28.3 µM) and the Activity (Mycobacterium leprae [16]) was 325 pg. The Activity (Mycobacterium leprae [17]) was 331 pg, the Activity (Mycobacterium leprae [18]) was 0.88 pmol and the Activity (Mycobacterium leprae [19]) was 317 pg. The Activity (Mycobacterium leprae [20]) was 0 pmol, the Activity (Mycobacterium leprae [21]) was 0 pg and the Activity (Mycobacterium leprae [22]) was 0.413 pmol. For the same compound, the Activity (Mycobacterium leprae [23]) was 0 pg, the Activity (Mycobacterium leprae [24]) was 0.45 pmol and the Activity (Mycobacterium leprae [25]) was 0 pg. For the same compound, the Activity (Mycobacterium leprae [26]) was 0 pmol.
